In ChEMBL document CHEMBL4177616, “Potent anti-melanogenic activity and favorable toxicity profile of selected 4-phenyl hydroxycoumarins in the zebrafish model and the computational molecular modeling studies” (Bioorg Med Chem, 2017):
The source made the active and inactive calls. The calls are words filed in the database; no cut-off is given here.

Columns and labels:
[1] = test system: Neutrophil; test: Anti-melanogenic activity in mpx:GFP transgenic zebrafish 24 hrs post fertilization embryo neutrophils assessed as decrease in pigmentation at 25 ug/ml; format: functional, cell-based; conditions: Danio rerio
[2] = species on record: Danio rerio; test: Toxicity in wild type zebrafish embryos assessed as skeletal deformities at 50 ug/ml treated for 96 hrs post fertilization starting from 6 hrs post fertilization by inverted microscopic analysis relative to control; format: organism-based; conditions: in vivo
[3] = target: T1, Tyrosinase (Danio rerio) (UniProt A0A8M1PAD4); test: Inhibition of zebrafish embryo tyrosinase assessed as melanin production at 10 ug/ml after 48 hrs relative to control; values are per cent of control
T1 sequence (whole entry): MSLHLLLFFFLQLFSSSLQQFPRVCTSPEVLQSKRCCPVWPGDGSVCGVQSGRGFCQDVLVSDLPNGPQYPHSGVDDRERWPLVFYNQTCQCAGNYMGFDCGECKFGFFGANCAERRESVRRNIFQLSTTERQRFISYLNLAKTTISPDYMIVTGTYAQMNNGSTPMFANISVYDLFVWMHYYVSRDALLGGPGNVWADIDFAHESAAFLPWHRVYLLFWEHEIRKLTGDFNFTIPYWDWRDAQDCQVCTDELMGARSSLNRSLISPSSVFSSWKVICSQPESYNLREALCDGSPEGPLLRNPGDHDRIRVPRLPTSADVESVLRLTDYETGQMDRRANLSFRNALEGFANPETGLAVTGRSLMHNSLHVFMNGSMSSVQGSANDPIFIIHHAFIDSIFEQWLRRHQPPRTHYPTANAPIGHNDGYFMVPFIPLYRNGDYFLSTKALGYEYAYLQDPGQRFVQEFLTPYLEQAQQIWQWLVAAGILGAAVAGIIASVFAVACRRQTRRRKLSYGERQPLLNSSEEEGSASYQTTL

[4] = target: T1, Tyrosinase (Danio rerio); test: Potency index, ratio of kojic acid IC50 to compound IC50 for zebrafish embryo tyrosinase assessed as residual activity
[5] = test system: Melanocyte; test: Cytotoxicity against wild type zebrafish embryo melanocytes assessed as change in morphology at to 25 ug/ml treated for 72 hrs post fertilization starting from 6 to 24 hrs post fertilization; format: cell-based, Danio rerio
[6] = species on record: Danio rerio; test: Toxicity in wild type zebrafish embryos assessed as eyes at 50 ug/ml treated for 96 hrs post fertilization starting from 6 hrs post fertilization by inverted microscopic analysis relative to control; format: organism-based; conditions: in vivo
[7] = test system: Neutrophil; test: Cytotoxicity against […] transgenic zebrafish 24 hrs post fertilization embryo neutrophils assessed as reduction in neutrophil at 25 ug/ml treated for 72 hrs post fertilization starting from 6 to 24 hrs post fertilization; format: cell-based, Danio rerio
[8] = species on record: Danio rerio; test: Toxicity in wild type zebrafish embryos assessed as heart beat at 50 ug/ml treated for 96 hrs post fertilization starting from 6 hrs post fertilization by inverted microscopic analysis relative to control; format: organism-based; conditions: in vivo
[9] = species on record: Danio rerio; test: Toxicity in wild type zebrafish embryos assessed as growth retardation at 15 ug/ml treated for 96 hrs post fertilization starting from 6 hrs post fertilization by inverted microscopic analysis relative to control; format: organism-based; conditions: in vivo
[10] = test system: Melanocyte; test: Anti-melanogenic activity in wild type zebrafish embryo melanocytes assessed as decrease in pigmentation at 25 ug/ml treated for 72 hrs post fertilization starting from 6 to 24 hrs post fertilization; format: functional, cell-based; conditions: Danio rerio
[11] = test system: Melanocyte; test: Cytotoxicity against wild type zebrafish embryo melanocytes assessed as number of melanocyte at 25 ug/ml treated for 72 hrs post fertilization starting from 6 to 24 hrs post fertilization; format: cell-based, Danio rerio
[12] = test system: Danio rerio; test: Toxicity in wild type zebrafish embryos assessed as pericardial edema at 50 ug/ml treated for 96 hrs post fertilization starting from 6 hrs post fertilization by inverted microscopic analysis relative to control; format: organism-based; conditions: in vivo
[13] = species on record: Danio rerio; test: Toxicity in wild type zebrafish embryos assessed as notochord at 15 ug/ml treated for 96 hrs post fertilization starting from 6 hrs post fertilization by inverted microscopic analysis relative to control; format: organism-based; conditions: in vivo
[14] = target: T1, Tyrosinase (Danio rerio); test: Inhibition of zebrafish embryo tyrosinase assessed as residual activity at 10 ug/ml after 48 hrs relative to control
[15] = target: T1, Tyrosinase (Danio rerio); test: Inhibition of zebrafish embryo tyrosinase assessed as residual activity at 15 ug/ml after 48 hrs relative to control
[16] = species on record: Danio rerio; test: Toxicity in wild type zebrafish embryos assessed as head malformation at 50 ug/ml treated for 96 hrs post fertilization starting from 6 hrs post fertilization by inverted microscopic analysis relative to control; format: organism-based; conditions: in vivo
[17] = target: T1, Tyrosinase (Danio rerio); test: Inhibition of zebrafish embryo tyrosinase assessed as melanin production at 20 ug/ml after 48 hrs relative to control; values are per cent of control
[18] = species on record: Danio rerio; test: Toxicity in wild type zebrafish embryos assessed as normal embryo at 15 ug/ml treated for 96 hrs post fertilization starting from 6 hrs post fertilization by inverted microscopic analysis relative to control; format: organism-based; conditions: in vivo
[19] = test system: Melanocyte; test: Cytotoxicity against wild type zebrafish embryo melanocytes assessed as size of melanocyte at to 25 ug/ml treated for 72 hrs post fertilization starting from 6 to 24 hrs post fertilization; format: cell-based, Danio rerio
[20] = species on record: Danio rerio; test: Toxicity in wild type zebrafish embryos assessed as eyes at 15 ug/ml treated for 96 hrs post fertilization starting from 6 hrs post fertilization by inverted microscopic analysis relative to control; format: organism-based; conditions: in vivo
[21] = species on record: Danio rerio; test: Toxicity in wild type zebrafish embryos assessed as blood circulation at 15 ug/ml treated for 96 hrs post fertilization starting from 6 hrs post fertilization by inverted microscopic analysis relative to control; format: organism-based; conditions: in vivo
[22] = species on record: Danio rerio; test: Toxicity in wild type zebrafish embryos assessed as growth retardation at 50 ug/ml treated for 96 hrs post fertilization starting from 6 hrs post fertilization by inverted microscopic analysis relative to control; format: organism-based; conditions: in vivo
[23] = test system: Danio rerio; test: Toxicity in wild type zebrafish embryos assessed as yolk edema at 15 ug/ml treated for 96 hrs post fertilization starting from 6 hrs post fertilization by inverted microscopic analysis relative to control; format: organism-based; conditions: in vivo
[24] = species on record: Danio rerio; test: Toxicity in wild type zebrafish embryos assessed as teratogenic embryo at 15 ug/ml treated for 96 hrs post fertilization starting from 6 hrs post fertilization by inverted microscopic analysis relative to control; format: organism-based; conditions: in vivo
[25] = species on record: Danio rerio; test: Toxicity in wild type zebrafish embryos assessed as unhatched embryo at 50 ug/ml treated for 96 hrs post fertilization starting from 6 hrs post fertilization by inverted microscopic analysis relative to control; format: organism-based; conditions: in vivo
[26] = species on record: Danio rerio; test: Toxicity in wild type zebrafish embryos assessed as otoliths at 50 ug/ml treated for 96 hrs post fertilization starting from 6 hrs post fertilization by inverted microscopic analysis relative to control; format: organism-based; conditions: in vivo
[27] = species on record: Danio rerio; test: Toxicity in wild type zebrafish embryos assessed as skeletal deformities at 15 ug/ml treated for 96 hrs post fertilization starting from 6 hrs post fertilization by inverted microscopic analysis relative to control; format: organism-based; conditions: in vivo
[28] = target: T2, Tyrosinase (Danio rerio, UniProt A0A8M1PAD4); test: Inhibition of zebrafish embryo tyrosinase assessed as melanin production after 48 hrs
T2 sequence (A0A8M1PAD4 whole entry): T1 sequence (whole entry)

[29] = Toxicity in wild type zebrafish embryos assessed as dead embryo at 15 ug/ml treated for 96 hrs post fertilization starting from 6 hrs post fertilization by inverted microscopic analysis relative to control; format: organism-based, Danio rerio; conditions: in vivo, read-out: Activity
[30] = target: T1, Tyrosinase (Danio rerio); test: Inhibition of zebrafish embryo tyrosinase assessed as melanin production at 5 ug/ml after 48 hrs relative to control; values are per cent of control
[31] = species on record: Danio rerio; test: Toxicity in wild type zebrafish embryos assessed as skeletal deformities at 20 ug/ml treated for 96 hrs post fertilization starting from 6 hrs post fertilization by inverted microscopic analysis relative to control; format: organism-based; conditions: in vivo

SMILES | Activity [1] | Activity [2] [%] | melanin content % of control [3] [%] | Ratio IC50 [4] | Activity [5] | Activity [6] [%] | Activity [7] | Activity [8] [%] | Activity [9] [%] | Activity [10] | Activity [11] | Activity [12] [%] | Activity [13] [%] | Activity [14] [%] | Activity [15] [%] | Activity [16] [%] | melanin content % of control [17] [%] | Activity [18] [%] | Activity [19] | Activity [20] [%] | other results
O=c1cc(-c2ccccc2)c2ccc(O)cc2o1 | Active | 0 | 91 | 41 | Non-Toxic | 0 | Non-Toxic | 0 | 0 | Active | Non-Toxic | 0 | 0 | 97 | 92 | 0 | 61 | 100 | Non-Toxic | 0 | Activity [21]: 0%; Activity [22]: 0%; Activity [23]: 0%; Activity [24]: 0%; Activity [25]: 0%; Activity [26]: 0%; Activity [27]: 0%; IC50 [28]: 103 µM; mortality at 15 ug/ml [29]: 0%; melanin content % of control [30]: 93%; Activity [31]: 0%
O=c1cc(-c2ccccc2)c2c(O)cc(O)cc2o1 | Active | 25 | 48 | 86 | Non-Toxic | 0 | Non-Toxic | 0 | 0 | Active | Non-Toxic | 5 | 0 | 82 | 76 | 0 | 37 | 100 | Non-Toxic | 0 | Activity [21]: 0%; Activity [22]: 0%; Activity [23]: 0%; Activity [24]: 0%; Activity [25]: 0%; Activity [26]: 0%; Activity [27]: 0%; IC50 [28]: 41.3 µM; mortality at 15 ug/ml [29]: 0%; melanin content % of control [30]: 63%; Activity [31]: 0%
